Assay results published in paper PMC10099595, “Multimodal 4-arylchromene derivatives with microtubule-destabilizing, anti-angiogenic, and MYB-inhibitory activities” (Cancer Drug Resistance, 2023).

Key:
[1] = tested on: HCT-116 p53-/- colon carcinoma cells; settings: positive control; ref Köhler et al.[20]; cited from earlier work
U-87 glioblastoma cells = settings: positive control; ref Köhler et al.[20]; read-out: IC50 U87; cited from earlier work
[2] = tested on: MCF-7 breast carcinoma cells; settings: positive control; ref Köhler et al.[20]; cited from earlier work
[3] = tested on: EA.hy926 endothelial hybrid cells; settings: positive control; ref Köhler et al.[20]; cited from earlier work
518A2 melanoma cells = settings: positive control; ref Köhler et al.[20]; cited from earlier work
[4] = tested on: KB-V1^Vbl cervix carcinoma cells; settings: without verapamil; ref Köhler et al.[20]; cited from earlier work
[5] = tested on: HDFa adult human dermal fibroblasts; set-up: method as in Köhler et al.[20]; settings: non-malignant cells; ref Köhler et al.[20]; cited from earlier work
[6] = tested on: HCT-116 colon carcinoma cells; settings: positive control; ref Köhler et al.[20]; cited from earlier work
[7] = tested on: HeLa cervix carcinoma cells; set-up: method as in Köhler et al.[20]; settings: positive control; ref Köhler et al.[20]; cited from earlier work
[8] = tested on: tested cancer and hybrid cell lines; test: MTT assay, average over all tested cancer and hybrid cell lines
Description: An 3-(4, 5-dimethylthiazol-2-yl)-2, 5-diphenyl tetrazolium bromid (MTT) assay was used for antiproliferative studies. Cancer cells (5 × 10^4 cells/mL, 100 μL/well) were placed in 96-well plates (10 × 10^4 cells/mL for HDFA and U87 cells), and the cells were incubated for 24 h at 5% CO2 and 95% humidity. Then, cells were treated with test compounds (at various concentrations) or solely with DMSO as a negative control for 72 h. Then, 12.5 μL of a 0.5% MTT solution in phosphate-buffered saline (PBS) was added to the cells, followed by incubation for 2 h at 37 °C. After centrifugation of the plates (300 × g, 5 min, 4 °C), the medium was discarded, and 25 μL of DMSO containing 10% SDS and 0.6% acetic acid was added, followed by incubation at 37 °C for at least 1 h. Formazan absorbance at λ = 570 nm was measured using a Tecan infinite F200 microplate reader and corrected for the background (λ = 630 nm). The 50% inhibitory concentration (IC50) values were calculated from dose-response curves (means ± SD, four independent experiments) compared to DMSO-treated control cells, which were set to 100%. GraphPad Prism 9 was used for curve-fitting.
The selectivity index (SI) was calculated as a measure of selectivity toward cancer cells compared to non-malignant cells.

[9] = tested on: HT-29 colon carcinoma cells; settings: positive control; ref Köhler et al.[20]; cited from earlier work

## N#CC1=C(N)Oc2c(ccc3ccccc23)C1c1cccc([N+](=O)[O-])c1 (stereo not drawn) [1A, 2-amino-4-(3-nitrophenyl)-4H-naphtho(1,2-b)pyran-3-carbonitrile]
[1]
  IC50: 0.03 ± 0.003 µM
U-87 glioblastoma cells
  IC50: 0.07 ± 0.009 µM
[2]
  IC50: 0.2 ± 0.02 µM
[3]
  IC50: 0.03 ± 0.001 µM
518A2 melanoma cells
  IC50: 0.01 ± 0.001 µM
[4]
  IC50: 0.02 ± 0.002 µM
[5]
  IC50: 40.7 µM
[6]
  IC50: 0.008 ± 0.0007 µM
[7]
  IC50: 0.04 ± 0.002 µM
[8]; Homo sapiens, read-out: Average IC50 value of the tested cancer and hybrid cell lines (Ø IC50), average of all cell lines of Table 2
  IC50: 0.052 µM
[8]; selectivity index, HDFa vs tumor cell average
  SI (IC50 HDFa cells/IC50 tumor cell average): 786
[9]
  IC50: 0.03 ± 0.003 µM
